Data reported in the supplement of paper PMC11208160.

Test: recombinant barcode read abundance after kanamycin selection (control-corrected) (log10(CPM+1)); higher = more efficient recombination; sequences stand for … in AGTGCAGAGAAAATCGGCCAGTTTTCTCTGCCTGCAGTCCGCATGCCGT…AGATTTATGCAGCGGACTGCCTTTCTCCCAAAGTGATAAACCGGACAGTATCATGGACCGGTTTTCCCGGTAATCCGTATTTGCAAGGTTGGTTTCACT; site = the 11-nt target
Procedure, shortened: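 Oligos holding a promoter, target, barcode and the J23119-driven first 104 bases of the bridge RNA were Gibson-cloned into a vector that supplied the other 73 bp plus a T7-inducible recombinase. This library was co-electroporated with a donor plasmid into E. coli. Two replicates went on chloramphenicol/ampicillin LB agar (control) and two on chloramphenicol/ampicillin/kanamycin with 0.1 mM IPTG. Recombination efficiency is read from averaged, control-corrected barcode counts per million at recombinant junctions, reported as log10(CPM+1).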
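Also: IS621 recombinase and bridge RNA in Escherichia coli cells.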

Point of comparison: “GTCTCATCTTGGGTTCTAACCTGTTGCCT (site GTCTAATCTAG)”, “recombinant barcode read abundance (log10)” value 0.0787. Against it:
- GTCTAAGCTTGGGTTCTAACCTGTTGCCT (site GTCTGAGCTAG) — within 0.2 log units, 0.0375
- GTCTACTCTTGGGTTCTAACCTGTTGCTG (site GTCTACTCTCA) — higher, 1.65
- GTCTACTCTTGGGTTCTAACCTGTTGCTG (site GTCTTCTCTAA) — within 0.2 log units, 0.0134
- GTCTCATCTTGGGTTCTAACCTGTTGCCT (site GTCTCATCTAG) — within 0.2 log units, 0.154
- GTCTCATCTTGGGTTCTAACCTGTTGCCT (site GTCTGATCTAG) — within 0.2 log units, 0.0892
- GTCTCATCTTGGGTTCTAACCTGTTGCCT (site GTCTTATCTAG) — within 0.2 log units, 0.0289
- GTCTCGGCTTGGGTTCTAACCTGTTGCTG (site GGGTCGGCTCA) — within 0.2 log units, 0.0356
- GTCTCGGCTTGGGTTCTAACCTGTTGCTG (site GTCTCGGCTCA) — within 0.2 log units, 0.0917
- GTCTCTACTTGGGTTCTAACCTGTTGCCG (site GTCACTACTCG) — within 0.2 log units, 0.234
- GTCTCTACTTGGGTTCTAACCTGTTGCCG (site GTCCCTACTCG) — higher, 0.593
- GTCTCTACTTGGGTTCTAACCTGTTGCCG (site GTCGCTACTCG) — within 0.2 log units, 0.117
- GTCTCTACTTGGGTTCTAACCTGTTGCCG (site GTCTCTACTCG) — within 0.2 log units, 0.0442
- GTCTCTTCTTGGGTTCTAACCTGTTGCTA (site GTCTCGTCTAA) — within 0.2 log units, 0.0282
- GTCTCTTCTTGGGTTCTAACCTGTTGCTA (site GTCTCTTCTTA) — higher, 0.306
- GTCTTACCTTGGGTTCTAACCTGTTGCCT (site GTCATACCTAG) — within 0.2 log units, 0.0521
- GTCTTACCTTGGGTTCTAACCTGTTGCCT (site GTCCTACCTAG) — higher, 1.21
- GTCTTACCTTGGGTTCTAACCTGTTGCCT (site GTCGTACCTAG) — within 0.2 log units, 0.098
- GTCTTACCTTGGGTTCTAACCTGTTGCCT (site GTCTTACCTAG) — higher, 1.34
- GTCTTACCTTGGGTTCTAACCTGTTGCTT (site GTCTTACCTAA) — higher, 0.74
- GTCTTACCTTGGGTTCTAACCTGTTGCTT (site TTCATACCTAA) — within 0.2 log units, 0.128
- GTCTTCCCTTGGGTTCTAACCTGTTGCCG (site ATCTTACCTCG) — within 0.2 log units, 0.0566
- GTCTTCCCTTGGGTTCTAACCTGTTGCCG (site GTCTTCCCTCG) — higher, 1.5
- GTCTTCCCTTGGGTTCTAACCTGTTGCGT (site GTCATGCCTAC) — within 0.2 log units, 0.0371
- GTCTTCCCTTGGGTTCTAACCTGTTGCGT (site GTCTTCCCTAC) — higher, 1.74
- GTGAAGCCTTGGGTTCTAACCTGTTGCCT (site ATGAAGCCTAG) — higher, 0.826
- GTGAAGCCTTGGGTTCTAACCTGTTGCCT (site CTGAAGCCTAG) — higher, 0.464
- GTGAAGCCTTGGGTTCTAACCTGTTGCCT (site GTGAAGCCTAG) — higher, 1.48
- GTGAAGCCTTGGGTTCTAACCTGTTGCCT (site TTGAAGCCTAG) — higher, 0.421
- GTGACCGCTTGGGTTCTAACCTGTTGCCT (site GTAACCGCTAG) — higher, 2
- GTGACCGCTTGGGTTCTAACCTGTTGCCT (site GTCACCGCTAG) — within 0.2 log units, 0.235
- GTGACCGCTTGGGTTCTAACCTGTTGCCT (site GTGACCGCTAG) — higher, 1.89
- GTGACCGCTTGGGTTCTAACCTGTTGCCT (site GTTACCGCTAG) — higher, 0.59
- GTGACCTCTTGGGTTCTAACCTGTTGCTG (site GGGACCTCTGA) — within 0.2 log units, 0.0723
- GTGACCTCTTGGGTTCTAACCTGTTGCTG (site GTGACCTCTCA) — higher, 1.51
- GTGAGGCCTTGGGTTCTAACCTGTTGCCT (site ATGAGGCCTAG) — higher, 1.19
- GTGAGGCCTTGGGTTCTAACCTGTTGCCT (site CTGAGGCCTAG) — within 0.2 log units, 0.151
- GTGAGGCCTTGGGTTCTAACCTGTTGCCT (site GTGAGGCCTAG) — within 0.2 log units, 0.153
- GTGAGGCCTTGGGTTCTAACCTGTTGCCT (site TTGAGGCCTAG) — within 0.2 log units, 0.0445
- GTGAGGTCTTGGGTTCTAACCTGTTGCCT (site GTGAGGTCTAA) — within 0.2 log units, 0.107
- GTGAGGTCTTGGGTTCTAACCTGTTGCCT (site GTGAGGTCTAC) — higher, 0.343
- GTGAGGTCTTGGGTTCTAACCTGTTGCCT (site GTGAGGTCTAG) — higher, 1.62
- GTGAGGTCTTGGGTTCTAACCTGTTGCCT (site GTGAGGTCTAT) — higher, 0.442
- GTGAGTCCTTGGGTTCTAACCTGTTGCGT (site GTGAGTCCTAC) — higher, 2.61
- GTGAGTCCTTGGGTTCTAACCTGTTGCGT (site GTTGGTCCTAC) — within 0.2 log units, 0.0363
- GTGATCCCTTGGGTTCTAACCTGTTGCTG (site GTGAACTCTCA) — within 0.2 log units, 0.0648
- GTGATCCCTTGGGTTCTAACCTGTTGCTG (site GTGATCCCTCA) — higher, 1.87
- GTGCACACTTGGGTTCTAACCTGTTGCGG (site GTGCACACTCC) — higher, 2.44
- GTGCACACTTGGGTTCTAACCTGTTGCGG (site GTGCACTCTCC) — higher, 0.322
- GTGCAGACTTGGGTTCTAACCTGTTGCCT (site GTACAGACTAG) — higher, 2.5
- GTGCAGACTTGGGTTCTAACCTGTTGCCT (site GTCCAGACTAG) — higher, 0.483
- GTGCAGACTTGGGTTCTAACCTGTTGCCT (site GTGCAGACTAG) — higher, 2.05
- GTGCAGACTTGGGTTCTAACCTGTTGCCT (site GTTCAGACTAG) — higher, 0.367
- GTGCCCGCTTGGGTTCTAACCTGTTGCGG (site GTGCCCGCTCC) — higher, 1.11
- GTGCCCGCTTGGGTTCTAACCTGTTGCGG (site GTGCCCTCTCG) — within 0.2 log units, 0.205
- GTGCGCCCTTGGGTTCTAACCTGTTGCGT (site GTGCGCCCTAC) — higher, 2.13
- GTGCGCCCTTGGGTTCTAACCTGTTGCGT (site GTGCGCCCTCC) — higher, 0.617
- GTGGAGGCTTGGGTTCTAACCTGTTGCCT (site ATGGCGGCTAG) — higher, 0.371
- GTGGAGGCTTGGGTTCTAACCTGTTGCCT (site GTGGAGGCTAG) — higher, 1.5
- GTGGAGTCTTGGGTTCTAACCTGTTGCGT (site GTGGAGTCTAC) — higher, 1.49
- GTGGAGTCTTGGGTTCTAACCTGTTGCGT (site TATCCTCCTCG) — within 0.2 log units, 0.0104
- GTGGCGTCTTGGGTTCTAACCTGTTGCCT (site GTGGCGTCTAG) — higher, 1.79
- GTGGCGTCTTGGGTTCTAACCTGTTGCCT (site TTGGCCTCTAG) — within 0.2 log units, 0.104
- GTGGGCGCTTGGGTTCTAACCTGTTGCCT (site GTAGGCGCTAG) — higher, 0.973
- GTGGGCGCTTGGGTTCTAACCTGTTGCCT (site GTCGGCGCTAG) — within 0.2 log units, 0.165
- GTGGGCGCTTGGGTTCTAACCTGTTGCCT (site GTGGGCGCTAG) — higher, 1.33
- GTGGGCGCTTGGGTTCTAACCTGTTGCCT (site GTTGGCGCTAG) — higher, 0.524
- GTGGTAACTTGGGTTCTAACCTGTTGCCT (site GTGGTAACTAG) — higher, 0.647
- GTGGTAACTTGGGTTCTAACCTGTTGCCT (site GTGGTACCTAG) — within 0.2 log units, 0.19
- GTGGTAACTTGGGTTCTAACCTGTTGCCT (site GTGGTAGCTAG) — higher, 0.3
- GTGGTAACTTGGGTTCTAACCTGTTGCCT (site GTGGTATCTAG) — within 0.2 log units, 0.0678
- GTGTACTCTTGGGTTCTAACCTGTTGCTT (site GTGGACTCTTA) — within 0.2 log units, 0.0612
- GTGTACTCTTGGGTTCTAACCTGTTGCTT (site GTGTACTCTAA) — higher, 1.35
- GTGTATCCTTGGGTTCTAACCTGTTGCAT (site GTGTATCCTAT) — higher, 1.7
- GTGTATCCTTGGGTTCTAACCTGTTGCAT (site GTGTCTCCTAT) — higher, 0.279
- GTGTATCCTTGGGTTCTAACCTGTTGCAT (site GTGTGTCCTAT) — within 0.2 log units, 0.0301
- GTGTATCCTTGGGTTCTAACCTGTTGCAT (site GTGTTTCCTAT) — within 0.2 log units, 0.0918
